US9708314B2, “Heterocyclic amide compound” (NISSAN CHEMICAL INDUSTRIES, LTD., priority 2013, dated 2017)

What was measured:
Assay type in all cases: in vivo
[1] = system: directly sowed Oryza sativa; assay: Test Example 3: effect on crop by application to foliage (Wagner pot, water depth 0.1-0.5 cm); conditions: Nineteenth Table; application to foliage; application herbicide amount 320 g/ha
Description: 5 Herbicidal ratio of 90% or more (almost completely withered) 4 Herbicidal ratio of 70% or more and less than 90% 3 Herbicidal ratio of 40% or more and less than 70% 2 Herbicidal ratio of 20% or more and less than 40% 1 Herbicidal ratio of 5% or more and less than 20% 0 Herbicidal ratio of 5% or less (almost no effect) [Test Example 3] Herbicidal Effect Test by Application to Foliage After alluvial soil was placed into 1/10000 are of Wagner pot, water was poured and mixed to form a condition having a water depth of 0.1 cm to 0.5 cm. Seeds of Echinochloa crus-galli var. crus-galli, Leptochloa chinensis, Cyperus difformis, and Oryza sativa were sowed and the pot was placed in the greenhouse of 25° C. to 30° C. to grow the plants. After the plants were grown for 14 days, the emulsion agent containing the compound of the present invention prepared in accordance with Formulation Example 2 was diluted with water so as to be a predetermined herbicide amount and the diluted compound was uniformly applied to a stem and leaf part with a small-size spray. Three weeks after the herbicide application, effects on each plant were investigated in accordance with the criteria of Test Example 1. A: Echinochloa oryzicola Vasing., B: Scirpus juncoides, C: Monochoria vaginalis, D: Leptochloa chinensis, E: Cyperus difformis, F: Digitaria ciliaris, G: Setaria viridis, H: Echinochloa crus-galli var. crus-galli, I: Avena fatua, J: Alopecurus myosuroides, K: Lolium multiflorum Lam., L: Apera spica-venti., M: Abutilon theophrasti, N: Amaranthus retroflexus, O: Chenopodium album, P: Stellaria media, Q: Galium spurium, R: Veronica persica, a: transplanted Oryza sativa, b: directly sowed Oryza sativa, c: Zea mays, d: Glycine max, e: Triticum aestivum, f: Beta vulgaris ssp. vulgaris, and g: Brassica campestris L. The application herbicide amount (g/ha) means an amount that a concentration is adjusted so that, when an application amount is converted into per hectare (1 ha), the herbicide is applied by the number of grams (g) of the described value.

[2] = system: Brassica campestris L.; assay: Test Example 4: effect on crop by application to foliage (diluvial soil, plastic box); conditions: application to foliage, application herbicide amount 320 g/ha
Procedure, shortened: (§1)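 Scores run from 0 (herbicidal ratio ≤5%) to 5 (≥90%, almost fully withered) and were assessed three weeks after foliar spraying. Seedlings had been raised for 14 days at 25-30° C in sterilized diluvial soil before treatment, with the emulsion diluted in water to the stated g/ha dose.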

[3] = system: Triticum aestivum; assay: as above; conditions: application to foliage, application herbicide amount 320 g/ha
Procedure, shortened: as §1

[4] = system: Zea mays; assay: as above; conditions: application to foliage, application herbicide amount 320 g/ha
Procedure, shortened: as §1

[5] = system: directly sowed Oryza sativa; assay: as above; conditions: application to foliage, application herbicide amount 320 g/ha
Procedure, shortened: as §1

[6] = system: Beta vulgaris ssp. vulgaris; assay: as above; conditions: application to foliage, application herbicide amount 320 g/ha
Procedure, shortened: as §1

[7] = system: Glycine max; assay: as above; conditions: application to foliage, application herbicide amount 320 g/ha
Procedure, shortened: as §1

[8] = system: Echinochloa crus-galli var. crus-galli; assay: Test Example 3: herbicidal effect by application to foliage (Wagner pot, water depth 0.1-0.5 cm); conditions: Nineteenth Table; application to foliage; application herbicide amount 320 g/ha
Procedure, shortened: (§2)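 Plants are raised 14 days from seed in flooded-surface Wagner pots at 25–30 °C, sprayed on stems and leaves with diluted emulsion at a predetermined rate, and rated three weeks on using a 0–5 herbicidal-ratio scale (5 ≥90%).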

[9] = system: Leptochloa chinensis; assay: as above; conditions: Nineteenth Table; application to foliage; application herbicide amount 320 g/ha
Procedure, shortened: as §2

[10] = system: Galium spurium; assay: Test Example 4: herbicidal effect by application to foliage (diluvial soil, plastic box); conditions: application to foliage, application herbicide amount 320 g/ha
Description: (§3) 5 Herbicidal ratio of 90% or more (almost completely withered) 4 Herbicidal ratio of 70% or more and less than 90% 3 Herbicidal ratio of 40% or more and less than 70% 2 Herbicidal ratio of 20% or more and less than 40% 1 Herbicidal ratio of 5% or more and less than 20% 0 Herbicidal ratio of 5% or less (almost no effect) [Test Example 4] Herbicidal Effect Test by Application to Foliage Sterilized diluvial soil was placed in a plastic box having a length of 21 cm, a width of 13 cm, and a depth of 7 cm. Each of the seeds of Digitaria ciliaris, Setaria viridis, Echinochloa crus-galli var. crus-galli, Avena fatua, Alopecurus myosuroides, Lolium multiflorum Lam., Apera spica-venti., Abutilon theophrasti, Amaranthus retroflexus, Chenopodium album, Stellaria media, Galium spurium, Veronica persica, Zea mays, Glycine max, Oryza sativa, Triticum aestivum, Beta vulgaris ssp. vulgaris, and Brassica campestris L. was sowed in a spot-like manner and was covered with the soil of about 1.5 cm thick. Thereafter, the plants were grown in the greenhouse of 25° C. to 30° C. After the plants were grown for 14 days, the emulsion agent containing the compound of the present invention prepared in accordance with Formulation Example 2 was diluted with water so as to be a predetermined herbicide amount and the diluted compound was uniformly applied to a stem and leaf part with a small-size spray. Three weeks after the herbicide application, effects on each plant were investigated in accordance with the criteria of Test Example 1. A: Echinochloa oryzicola Vasing., B: Scirpus juncoides, C: Monochoria vaginalis, D: Leptochloa chinensis, E: Cyperus difformis, F: Digitaria ciliaris, G: Setaria viridis, H: Echinochloa crus-galli var. crus-galli, I: Avena fatua, J: Alopecurus myosuroides, K: Lolium multiflorum Lam., L: Apera spica-venti., M: Abutilon theophrasti, N: Amaranthus retroflexus, O: Chenopodium album, P: Stellaria media, Q: Galium spurium, R: Veronica persica, a: transplanted Oryza sativa, b: directly sowed Oryza sativa, c: Zea mays, d: Glycine max, e: Triticum aestivum, f: Beta vulgaris ssp. vulgaris, and g: Brassica campestris L. The application herbicide amount (g/ha) means an amount that a concentration is adjusted so that, when an application amount is converted into per hectare (1 ha), the herbicide is applied by the number of grams (g) of the described value.

[11] = system: Veronica persica; assay: as above; conditions: application to foliage, application herbicide amount 320 g/ha
Description: as §3

[12] = system: Amaranthus retroflexus; assay: as above; conditions: application to foliage, application herbicide amount 320 g/ha
Description: as §3

[13] = system: Abutilon theophrasti; assay: as above; conditions: application to foliage, application herbicide amount 320 g/ha
Description: as §3

[14] = system: Digitaria ciliaris; assay: as above; conditions: application to foliage, application herbicide amount 320 g/ha
Description: as §3

[15] = system: Echinochloa crus-galli var. crus-galli; assay: as above; conditions: application to foliage, application herbicide amount 320 g/ha
Description: as §3

[16] = system: Lolium multiflorum Lam.; assay: as above; conditions: application to foliage, application herbicide amount 320 g/ha
Description: as §3

[17] = system: Apera spica-venti.; assay: as above; conditions: application to foliage, application herbicide amount 320 g/ha
Description: as §3

[18] = system: Chenopodium album; assay: as above; conditions: application to foliage, application herbicide amount 320 g/ha
Description: as §3

[19] = system: Alopecurus myosuroides; assay: as above; conditions: application to foliage, application herbicide amount 320 g/ha
Description: as §3

[20] = system: Stellaria media; assay: as above; conditions: application to foliage, application herbicide amount 320 g/ha
Description: as §3

[21] = system: Avena fatua; assay: as above; conditions: application to foliage, application herbicide amount 320 g/ha
Description: as §3

[22] = system: Setaria viridis; assay: as above; conditions: application to foliage, application herbicide amount 320 g/ha
Description: as §3

SMILES	b (effect on crop grade) [1]	g: effect on crop, Brassica campestris L. [2]	e: effect on crop, Triticum aestivum [3]	c: effect on crop, Zea mays [4]	b: effect on crop, directly sowed Oryza sativa [5]	f: effect on crop, Beta vulgaris ssp. vulgaris [6]	d: effect on crop, Glycine max [7]	H (herbicidal effect grade) [8]	D (herbicidal effect grade) [9]	Q: herbicidal effect on Galium spurium [10]	R: herbicidal effect on Veronica persica [11]	N: herbicidal effect on Amaranthus retroflexus [12]	M: herbicidal effect on Abutilon theophrasti [13]	F: herbicidal effect on Digitaria ciliaris [14]	H: herbicidal effect on Echinochloa crus-galli var. crus-galli [15]	K: herbicidal effect on Lolium multiflorum Lam. [16]	L: herbicidal effect on Apera spica-venti. [17]	O: herbicidal effect on Chenopodium album [18]	J: herbicidal effect on Alopecurus myosuroides [19]	P: herbicidal effect on Stellaria media [20]	also measured
Cc1nnc(NC(=O)c2ccc(C(F)(F)F)n3c(C4CC=CCC4)nnc23)o1 (centres unmarked) [1-170]	1 (Herbicidal ratio of 5% or more and less than 20%)	3 (Herbicidal ratio of 40% or more and less than 70%)	0 (Herbicidal ratio of 5% or less (almost no effect))	0 (Herbicidal ratio of 5% or less (almost no effect))	0 (Herbicidal ratio of 5% or less (almost no effect))	5 (Herbicidal ratio of 90% or more (almost completely withered))	2 (Herbicidal ratio of 20% or more and less than 40%)	2 (Herbicidal ratio of 20% or more and less than 40%)	4 (Herbicidal ratio of 70% or more and less than 90%)	2 (Herbicidal ratio of 20% or more and less than 40%)	4 (Herbicidal ratio of 70% or more and less than 90%)	3 (Herbicidal ratio of 40% or more and less than 70%)	3 (Herbicidal ratio of 40% or more and less than 70%)	4 (Herbicidal ratio of 70% or more and less than 90%)	4 (Herbicidal ratio of 70% or more and less than 90%)	1 (Herbicidal ratio of 5% or more and less than 20%)	1 (Herbicidal ratio of 5% or more and less than 20%)	5 (Herbicidal ratio of 90% or more (almost completely withered))	0 (Herbicidal ratio of 5% or less (almost no effect))	4 (Herbicidal ratio of 70% or more and less than 90%)	I: herbicidal effect on Avena fatua [21]: 1 (Herbicidal ratio of 5% or more and less than 20%); G: herbicidal effect on Setaria viridis [22]: 3 (Herbicidal ratio of 40% or more and less than 70%)
CCN(C(=O)c1ccc(C(F)(F)F)n2c(C3(C)CC3(Cl)Cl)nnc12)c1nnc(C)o1 (centres unmarked) [1-174, 3-(2,2-Dichloro-1-methylcyclopropyl)-N-ethyl-N-(5-methyl-1,3,4-oxadiazol-2-yl)-5-(trifluoromethyl)-[1,2,4]triazolo[4,3-a]pyridine-8-carboxamide]	0 (Herbicidal ratio of 5% or less (almost no effect))	0 (Herbicidal ratio of 5% or less (almost no effect))	0 (Herbicidal ratio of 5% or less (almost no effect))	0 (Herbicidal ratio of 5% or less (almost no effect))	0 (Herbicidal ratio of 5% or less (almost no effect))	4 (Herbicidal ratio of 70% or more and less than 90%)	0 (Herbicidal ratio of 5% or less (almost no effect))	2 (Herbicidal ratio of 20% or more and less than 40%)	2 (Herbicidal ratio of 20% or more and less than 40%)	3 (Herbicidal ratio of 40% or more and less than 70%)	3 (Herbicidal ratio of 40% or more and less than 70%)	4 (Herbicidal ratio of 70% or more and less than 90%)	0 (Herbicidal ratio of 5% or less (almost no effect))	0 (Herbicidal ratio of 5% or less (almost no effect))	0 (Herbicidal ratio of 5% or less (almost no effect))	0 (Herbicidal ratio of 5% or less (almost no effect))	0 (Herbicidal ratio of 5% or less (almost no effect))	5 (Herbicidal ratio of 90% or more (almost completely withered))	0 (Herbicidal ratio of 5% or less (almost no effect))	3 (Herbicidal ratio of 40% or more and less than 70%)	I: herbicidal effect on Avena fatua [21]: 0 (Herbicidal ratio of 5% or less (almost no effect)); G: herbicidal effect on Setaria viridis [22]: 0 (Herbicidal ratio of 5% or less (almost no effect))
